Measured values reported in ChEMBL document CHEMBL4033800, “Further Developments of the Phenyl-Pyrrolyl Pentane Series of Nonsteroidal Vitamin D Receptor Modulators as Anticancer Agents” (J Med Chem, 2018).

Tests used:
MCF7 = assay: Antiproliferative activity against human MCF7 cells after 48 hrs by MTT assay; assay type: functional, cell-based; settings: MCF7, 48 h
L02 = assay: Antiproliferative activity against human L02 cells after 48 hrs by MTT assay; assay type: cell-based; settings: L02, 48 h
PC-3 = assay: Antiproliferative activity against human PC3 cells after 48 hrs by MTT assay; assay type: functional, cell-based; settings: PC-3, 48 h
Caco-2 = assay: Antiproliferative activity against human Caco2 cells after 48 hrs by MTT assay; assay type: functional, cell-based; settings: Caco-2, 48 h
HepG2 = assay: Antiproliferative activity against human HepG2 cells after 48 hrs by MTT assay; assay type: functional, cell-based; settings: HepG2, 48 h
Vitamin D3 receptor = target: T1, Vitamin D3 receptor (Homo sapiens, UniProt P11473); assay: Displacement of fluormone VDR red from human full length VDR after 4 hrs by fluorescence polarization assay
T1 sequence (P11473 whole entry): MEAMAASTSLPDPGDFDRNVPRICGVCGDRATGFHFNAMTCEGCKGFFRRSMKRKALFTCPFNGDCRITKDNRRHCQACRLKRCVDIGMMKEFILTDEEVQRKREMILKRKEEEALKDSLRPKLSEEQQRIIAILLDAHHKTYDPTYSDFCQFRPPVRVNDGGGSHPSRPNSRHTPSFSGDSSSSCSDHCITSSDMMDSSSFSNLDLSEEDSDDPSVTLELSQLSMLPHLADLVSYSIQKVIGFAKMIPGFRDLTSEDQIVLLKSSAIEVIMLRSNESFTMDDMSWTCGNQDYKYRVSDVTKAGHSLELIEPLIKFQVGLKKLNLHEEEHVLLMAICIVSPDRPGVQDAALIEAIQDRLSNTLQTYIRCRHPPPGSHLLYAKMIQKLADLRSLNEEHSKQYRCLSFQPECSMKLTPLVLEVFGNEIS

Row | Structure (SMILES) | IC50 (MCF7) [µM] | IC50 (L02) [µM] | IC50 (PC-3) [µM] | IC50 (Caco-2) [µM] | IC50 (HepG2) [µM] | IC50 (Vitamin D3 receptor) [µM]
1 | CCn1c(C(=O)NCCCN(C)C)ccc1C(CC)(CC)c1ccc(OCCC(O)(CC)CC)c(C)c1 | 3.35 | 2.42 | 2.15 | 0.49 | 0.11 | 
2 | CCn1c(C(=O)NCC#N)ccc1C(CC)(CC)c1ccc(OCCC(O)(CC)CC)c(C)c1 | > 50 | > 50 | 17.8 | > 50 | > 50 | 0.825
3 | CCn1c(C(=O)Nc2ccc(OC(F)(F)F)cc2)ccc1C(CC)(CC)c1ccc(OCCC(O)(CC)CC)c(C)c1 | > 50 | > 50 | > 50 | > 50 | > 50 | 
4 | CCC(C)C(NC(=O)c1ccc(C(CC)(CC)c2ccc(OCCC(O)(CC)CC)c(C)c2)n1CC)C(=O)O (stereo unspecified) | 11.3 | 9.99 | 13.8 | 20 | 2.62 | 
5 | C#CCCOC(=O)c1ccc(C(CC)(CC)c2ccc(OCCC(O)(CC)CC)c(C)c2)n1CC | > 50 | > 50 | > 50 | > 50 | > 50 | 
6 | CCn1c(C(=O)Oc2ccc(CC(=O)OC)cc2)ccc1C(CC)(CC)c1ccc(OCCC(O)(CC)CC)c(C)c1 | > 50 | > 50 | > 50 | > 50 | > 50 | 
7 | C=CCN(C)C(=O)c1ccc(C(CC)(CC)c2ccc(OCCC(O)(CC)CC)c(C)c2)n1CC | > 50 | 1.19 | 12.8 | > 50 | > 50 | 
8 | CCn1c(C(=O)N(CCC#N)CCC#N)ccc1C(CC)(CC)c1ccc(OCCC(O)(CC)CC)c(C)c1 | > 50 | 37.8 | > 50 | > 50 | 46.3 | 
9 | CCC(C)C(CO)NC(=O)c1ccc(C(CC)(CC)c2ccc(OCCC(O)(CC)CC)c(C)c2)n1CC (stereo unspecified) | 29.1 | > 50 | 28.4 | > 50 | > 50 | 
10 | C#CC(C)OC(=O)c1ccc(C(CC)(CC)c2ccc(OCCC(O)(CC)CC)c(C)c2)n1CC (stereo unspecified) | > 50 | > 50 | 14.8 | > 50 | > 50 | 
11 | CCn1c(C(=O)NC(C)CO)ccc1C(CC)(CC)c1ccc(OCCC(O)(CC)CC)c(C)c1 (stereo unspecified) | 12.6 | 4.84 | 7.87 | > 50 | 43.1 | 
12 | CCC(C)C(NC(=O)c1ccc(C(CC)(CC)c2ccc(OCCC(O)(CC)CC)c(C)c2)n1CC)C(=O)OC (stereo unspecified) | > 50 | > 50 | > 50 | > 50 | > 50 | 
